From the NIST ThermoML archive (doi:10.1016/j.fluid.2008.03.004)
± gives the expanded uncertainty stated by the source.

Experiments:
[1] = 101 kPa, Liquid; for speed of sound: Sing-around technique in a fixed-path interferometer
[2] = xn = mol fraction of the nth substance listed; conditions: 101 kPa, Liquid; for speed of sound: Sing-around technique in a fixed-path interferometer

Cc1ccccc1C [1,2-dimethylbenzene]
[1]
Conditions	mass density [kg/m3]	speed of sound [m/s]
288.15 K	883.36 ± 0.35	1381.3 ± 2.2
290.65 K	881.265 ± 0.35	1371.8 ± 2.2
293.15 K	879.168 ± 0.35	1362.2 ± 2.2
295.65 K	877.069 ± 0.36	1351.8 ± 2.2
298.15 K	874.968 ± 0.36	1341.5 ± 2.2
300.65 K	872.865 ± 0.36	1331.2 ± 2.2
303.15 K	870.759 ± 0.36	1321 ± 2.2
305.65 K	868.65 ± 0.37	1310.8 ± 2.2
308.15 K	866.538 ± 0.37	1300.7 ± 2.2
310.65 K	864.422 ± 0.38	1290.6 ± 2.2
313.15 K	862.302 ± 0.38	1280.6 ± 2.2
315.65 K	860.179 ± 0.38	1270.5 ± 2.2
318.15 K	858.054 ± 0.38	1260.6 ± 2.2
320.65 K	855.927 ± 0.39	1250.7 ± 2.2
323.15 K	853.803 ± 0.39	1240.9 ± 2.2

Cc1ccccc1C [1,2-dimethylbenzene] + CCOC(C)(C)C
[2], x2 = 0
Conditions	mass density [kg/m3]	speed of sound [m/s]
288.15 K	883.36 ± 0.35	1381.3 ± 2.2
290.65 K	881.265 ± 0.35	1371.8 ± 2.2
293.15 K	879.168 ± 0.35	1362.2 ± 2.2
295.65 K	877.069 ± 0.36	1351.8 ± 2.2
298.15 K	874.968 ± 0.36	1341.5 ± 2.2
300.65 K	872.865 ± 0.36	1331.2 ± 2.2
303.15 K	870.759 ± 0.36	1321 ± 2.2
305.65 K	868.65 ± 0.37	1310.8 ± 2.2
308.15 K	866.538 ± 0.37	1300.7 ± 2.2
310.65 K	864.422 ± 0.38	1290.6 ± 2.2
313.15 K	862.302 ± 0.38	1280.6 ± 2.2
315.65 K	860.179 ± 0.38	1270.5 ± 2.2
318.15 K	858.054 ± 0.38	1260.6 ± 2.2
320.65 K	855.927 ± 0.39	1250.7 ± 2.2
323.15 K	853.803 ± 0.39	1240.9 ± 2.2

Cc1cccc(C)c1 [1,3-dimethylbenzene]
[1]
Conditions	mass density [kg/m3]	speed of sound [m/s]
288.15 K	868.459 ± 0.37	1362.7 ± 2.2
290.65 K	866.318 ± 0.37	1352.1 ± 2.2
293.15 K	864.177 ± 0.38	1341.7 ± 2.2
295.65 K	862.035 ± 0.38	1331.3 ± 2.2
298.15 K	859.89 ± 0.38	1320.9 ± 2.2
300.65 K	857.742 ± 0.38	1310.6 ± 2.2
303.15 K	855.593 ± 0.39	1300.3 ± 2.2
305.65 K	853.441 ± 0.39	1290 ± 2.2
308.15 K	851.282 ± 0.39	1279.8 ± 2.2
310.65 K	849.122 ± 0.4	1269.6 ± 2.2
313.15 K	846.958 ± 0.4	1259.5 ± 2.2
315.65 K	844.792 ± 0.4	1249.3 ± 2.2
318.15 K	842.622 ± 0.41	1239.3 ± 2.2
320.65 K	840.452 ± 0.41	1229.3 ± 2.2
323.15 K	838.289 ± 0.41	1219.5 ± 2.2

Cc1cccc(C)c1 [1,3-dimethylbenzene] + CCOC(C)(C)C
[2], x2 = 0
Conditions	mass density [kg/m3]	speed of sound [m/s]
288.15 K	868.459 ± 0.37	1362.7 ± 2.2
290.65 K	866.318 ± 0.37	1352.1 ± 2.2
293.15 K	864.177 ± 0.38	1341.7 ± 2.2
295.65 K	862.035 ± 0.38	1331.3 ± 2.2
298.15 K	859.89 ± 0.38	1320.9 ± 2.2
300.65 K	857.742 ± 0.38	1310.6 ± 2.2
303.15 K	855.593 ± 0.39	1300.3 ± 2.2
305.65 K	853.441 ± 0.39	1290 ± 2.2
308.15 K	851.282 ± 0.39	1279.8 ± 2.2
310.65 K	849.122 ± 0.4	1269.6 ± 2.2
313.15 K	846.958 ± 0.4	1259.5 ± 2.2
315.65 K	844.792 ± 0.4	1249.3 ± 2.2
318.15 K	842.622 ± 0.41	1239.3 ± 2.2
320.65 K	840.452 ± 0.41	1229.3 ± 2.2
323.15 K	838.289 ± 0.41	1219.5 ± 2.2

Cc1ccc(C)cc1 [1,4-dimethylbenzene]
[1]
Conditions	mass density [kg/m3]	speed of sound [m/s]
288.15 K	865.354 ± 0.37	1347.9 ± 2.2
290.65 K	863.184 ± 0.38	1336.9 ± 2.2
293.15 K	861.015 ± 0.38	1326.1 ± 2.2
295.65 K	858.846 ± 0.38	1315.6 ± 2.2
298.15 K	856.675 ± 0.39	1305.4 ± 2.2
300.65 K	854.501 ± 0.39	1295.3 ± 2.2
303.15 K	852.326 ± 0.39	1285.4 ± 2.2
305.65 K	850.148 ± 0.4	1275.6 ± 2.2
308.15 K	847.969 ± 0.4	1266.1 ± 2.2
310.65 K	845.784 ± 0.4	1256.4 ± 2.2
313.15 K	843.599 ± 0.41	1246.8 ± 2.2
315.65 K	841.41 ± 0.41	1237.6 ± 2.2
318.15 K	839.22 ± 0.41	1228.1 ± 2.2
320.65 K	837.031 ± 0.41	1220.5 ± 2.2
323.15 K	834.849 ± 0.42	1211 ± 2.2

Cc1ccc(C)cc1 [1,4-dimethylbenzene] + CCOC(C)(C)C
[2], x2 = 0
Conditions	mass density [kg/m3]	speed of sound [m/s]
288.15 K	865.354 ± 0.37	1347.9 ± 2.2
290.65 K	863.184 ± 0.38	1336.9 ± 2.2
293.15 K	861.015 ± 0.38	1326.1 ± 2.2
295.65 K	858.846 ± 0.38	1315.6 ± 2.2
298.15 K	856.675 ± 0.39	1305.4 ± 2.2
300.65 K	854.501 ± 0.39	1295.3 ± 2.2
303.15 K	852.326 ± 0.39	1285.4 ± 2.2
305.65 K	850.148 ± 0.4	1275.6 ± 2.2
308.15 K	847.969 ± 0.4	1266.1 ± 2.2
310.65 K	845.784 ± 0.4	1256.4 ± 2.2
313.15 K	843.599 ± 0.41	1246.8 ± 2.2
315.65 K	841.41 ± 0.41	1237.6 ± 2.2
318.15 K	839.22 ± 0.41	1228.1 ± 2.2
320.65 K	837.031 ± 0.41	1220.5 ± 2.2
323.15 K	834.849 ± 0.42	1211 ± 2.2

Cc1ccc(C)cc1 [1,4-dimethylbenzene] + COC(C)(C)C
[2], x2 = 0
Conditions	mass density [kg/m3]	speed of sound [m/s]
288.15 K	865.354 ± 0.37	1347.9 ± 2.2
290.65 K	863.184 ± 0.38	1336.9 ± 2.2
293.15 K	861.015 ± 0.38	1326.1 ± 2.2
295.65 K	858.846 ± 0.38	1315.6 ± 2.2
298.15 K	856.675 ± 0.39	1305.4 ± 2.2
300.65 K	854.501 ± 0.39	1295.3 ± 2.2
303.15 K	852.326 ± 0.39	1285.4 ± 2.2
305.65 K	850.148 ± 0.4	1275.6 ± 2.2
308.15 K	847.969 ± 0.4	1266.1 ± 2.2
310.65 K	845.784 ± 0.4	1256.4 ± 2.2
313.15 K	843.599 ± 0.41	1246.8 ± 2.2
315.65 K	841.41 ± 0.41	1237.6 ± 2.2
318.15 K	839.22 ± 0.41	1228.1 ± 2.2
320.65 K	837.031 ± 0.41	1220.5 ± 2.2
323.15 K	834.849 ± 0.42	1211 ± 2.2

CCOC(C)(C)C [2-ethoxy-2-methylpropane]
[1]
Conditions	mass density [kg/m3]	speed of sound [m/s]
288.15 K	744.955 ± 0.55	1076.4 ± 2.2
290.65 K	742.482 ± 0.56	1065.1 ± 2.2
293.15 K	739.947 ± 0.56	1053.7 ± 2.2
295.65 K	737.374 ± 0.56	1042.2 ± 2.2
298.15 K	734.806 ± 0.57	1031 ± 2.2
300.65 K	732.225 ± 0.57	1019.8 ± 2.2
303.15 K	729.647 ± 0.57	1008.6 ± 2.2
305.65 K	727.038 ± 0.58	997.52 ± 2.2
308.15 K	724.443 ± 0.58	986.39 ± 2.2
310.65 K	721.826 ± 0.59	975.42 ± 2.2
313.15 K	719.179 ± 0.59	964.53 ± 2.2
315.65 K	716.527 ± 0.59	953.54 ± 2.2
318.15 K	713.96 ± 0.6	942.67 ± 2.2
320.65 K	711.25 ± 0.6	931.73 ± 2.2
323.15 K	708.642 ± 0.61	920.73 ± 2.2

COC(C)(C)C [2-methoxy-2-methylpropane]
[1]
Conditions	mass density [kg/m3]	speed of sound [m/s]
288.15 K	744.861 ± 0.55	1083.4 ± 2.2
290.65 K	742.259 ± 0.56	1071.6 ± 2.2
293.15 K	739.654 ± 0.56	1060 ± 2.2
295.65 K	737.036 ± 0.56	1048.5 ± 2.2
298.15 K	734.406 ± 0.57	1036.9 ± 2.2
300.65 K	731.766 ± 0.57	1025.4 ± 2.2
303.15 K	729.112 ± 0.58	1013.9 ± 2.2
305.65 K	726.444 ± 0.58	1002.4 ± 2.2
308.15 K	723.763 ± 0.58	990.99 ± 2.2
310.65 K	721.069 ± 0.59	979.62 ± 2.2
313.15 K	718.357 ± 0.59	968.16 ± 2.2
315.65 K	715.636 ± 0.6	956.8 ± 2.2
318.15 K	712.897 ± 0.6	945.54 ± 2.2
320.65 K	710.141 ± 0.6	934.24 ± 2.2
323.15 K	707.381 ± 0.61	922.97 ± 2.2

COC(C)(C)C [2-methoxy-2-methylpropane] + Cc1cccc(C)c1
[2], x1 = 1
Conditions	mass density [kg/m3]	speed of sound [m/s]
288.15 K	744.861 ± 0.55	1083.4 ± 2.2
290.65 K	742.259 ± 0.56	1071.6 ± 2.2
293.15 K	739.654 ± 0.56	1060 ± 2.2
295.65 K	737.036 ± 0.56	1048.5 ± 2.2
298.15 K	734.406 ± 0.57	1036.9 ± 2.2
300.65 K	731.766 ± 0.57	1025.4 ± 2.2
303.15 K	729.112 ± 0.58	1013.9 ± 2.2
305.65 K	726.444 ± 0.58	1002.4 ± 2.2
308.15 K	723.763 ± 0.58	990.99 ± 2.2
310.65 K	721.069 ± 0.59	979.62 ± 2.2
313.15 K	718.357 ± 0.59	968.16 ± 2.2
315.65 K	715.636 ± 0.6	956.8 ± 2.2
318.15 K	712.897 ± 0.6	945.54 ± 2.2
320.65 K	710.141 ± 0.6	934.24 ± 2.2
323.15 K	707.381 ± 0.61	922.97 ± 2.2

COC(C)(C)C [2-methoxy-2-methylpropane] + Cc1ccccc1C
[2], x1 = 1
Conditions	mass density [kg/m3]	speed of sound [m/s]
288.15 K	744.861 ± 0.55	1083.4 ± 2.2
290.65 K	742.259 ± 0.56	1071.6 ± 2.2
293.15 K	739.654 ± 0.56	1060 ± 2.2
295.65 K	737.036 ± 0.56	1048.5 ± 2.2
298.15 K	734.406 ± 0.57	1036.9 ± 2.2
300.65 K	731.766 ± 0.57	1025.4 ± 2.2
303.15 K	729.112 ± 0.58	1013.9 ± 2.2
305.65 K	726.444 ± 0.58	1002.4 ± 2.2
308.15 K	723.763 ± 0.58	990.99 ± 2.2
310.65 K	721.069 ± 0.59	979.62 ± 2.2
313.15 K	718.357 ± 0.59	968.16 ± 2.2
315.65 K	715.636 ± 0.6	956.8 ± 2.2
318.15 K	712.897 ± 0.6	945.54 ± 2.2
320.65 K	710.141 ± 0.6	934.24 ± 2.2
323.15 K	707.381 ± 0.61	922.97 ± 2.2
